Key:
RBL-2H3 = test: Antiallergic activity against anti-DNP-IgE sensitized rat RBL-2H3 cells assessed as […] of degranulation by measuring beta-hexosaminidase release using P-nitrophenyl-N-acetyl-D-glucosamide as substrate measured after 1 hr by microplate reader; type: functional, cell-based; conditions: RBL-2H3, 1 h
[1] = molecular target: Tyrosine-protein kinase BTK (Homo sapiens) (UniProt Q06187); test: Inhibition of human full length recombinant BTK at 5 nM by radiometric scintillation counting analysis relative to control
Tyrosine-protein kinase BTK (Homo sapiens), sequence (Q06187 whole entry): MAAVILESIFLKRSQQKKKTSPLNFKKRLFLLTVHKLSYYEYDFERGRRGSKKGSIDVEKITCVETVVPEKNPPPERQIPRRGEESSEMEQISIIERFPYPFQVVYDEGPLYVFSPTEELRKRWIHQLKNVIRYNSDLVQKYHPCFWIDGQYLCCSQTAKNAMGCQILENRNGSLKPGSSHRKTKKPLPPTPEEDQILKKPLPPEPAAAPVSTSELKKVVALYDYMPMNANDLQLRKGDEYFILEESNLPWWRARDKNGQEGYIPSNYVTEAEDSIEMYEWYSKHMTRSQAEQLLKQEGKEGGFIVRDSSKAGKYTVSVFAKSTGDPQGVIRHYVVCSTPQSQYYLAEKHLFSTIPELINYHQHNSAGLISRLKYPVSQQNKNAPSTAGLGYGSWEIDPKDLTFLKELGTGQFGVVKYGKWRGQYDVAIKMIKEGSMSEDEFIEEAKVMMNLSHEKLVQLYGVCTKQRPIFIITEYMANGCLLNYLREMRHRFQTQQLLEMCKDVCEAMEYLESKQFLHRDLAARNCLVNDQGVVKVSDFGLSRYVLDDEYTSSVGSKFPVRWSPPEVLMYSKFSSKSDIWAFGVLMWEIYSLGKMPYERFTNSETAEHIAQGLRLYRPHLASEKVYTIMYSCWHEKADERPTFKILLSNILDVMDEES

[2] = molecular target: T1, Tyrosine-protein kinase Fyn (Homo sapiens, UniProt P06241); test: Inhibition of human recombinant Fyn (218 to end) at 5 nM incubated for 15 mins relative to control
T1 sequence (P06241 2-537 limits assumed): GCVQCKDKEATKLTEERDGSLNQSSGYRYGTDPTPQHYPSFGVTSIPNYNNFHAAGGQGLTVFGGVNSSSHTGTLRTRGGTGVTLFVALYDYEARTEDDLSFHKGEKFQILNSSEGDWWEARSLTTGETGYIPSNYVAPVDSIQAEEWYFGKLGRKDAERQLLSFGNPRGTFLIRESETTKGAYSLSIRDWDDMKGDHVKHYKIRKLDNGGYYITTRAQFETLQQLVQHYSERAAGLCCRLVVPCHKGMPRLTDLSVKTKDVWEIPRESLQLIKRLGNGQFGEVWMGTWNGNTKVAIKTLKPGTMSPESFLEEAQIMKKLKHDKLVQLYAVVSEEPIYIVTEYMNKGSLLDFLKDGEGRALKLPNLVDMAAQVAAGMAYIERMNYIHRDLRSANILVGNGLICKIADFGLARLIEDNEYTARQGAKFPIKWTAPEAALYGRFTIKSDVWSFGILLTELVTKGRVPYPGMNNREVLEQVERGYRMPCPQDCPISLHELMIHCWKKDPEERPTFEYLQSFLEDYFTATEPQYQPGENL

[3] = molecular target: Tyrosine-protein kinase HCK (Homo sapiens, UniProt P08631); test: Inhibition of human recombinant HCK (230 to 497) at 5 nM by radiometric scintillation counting analysis relative to control
Tyrosine-protein kinase HCK, sequence (P08631 2-526 limits assumed): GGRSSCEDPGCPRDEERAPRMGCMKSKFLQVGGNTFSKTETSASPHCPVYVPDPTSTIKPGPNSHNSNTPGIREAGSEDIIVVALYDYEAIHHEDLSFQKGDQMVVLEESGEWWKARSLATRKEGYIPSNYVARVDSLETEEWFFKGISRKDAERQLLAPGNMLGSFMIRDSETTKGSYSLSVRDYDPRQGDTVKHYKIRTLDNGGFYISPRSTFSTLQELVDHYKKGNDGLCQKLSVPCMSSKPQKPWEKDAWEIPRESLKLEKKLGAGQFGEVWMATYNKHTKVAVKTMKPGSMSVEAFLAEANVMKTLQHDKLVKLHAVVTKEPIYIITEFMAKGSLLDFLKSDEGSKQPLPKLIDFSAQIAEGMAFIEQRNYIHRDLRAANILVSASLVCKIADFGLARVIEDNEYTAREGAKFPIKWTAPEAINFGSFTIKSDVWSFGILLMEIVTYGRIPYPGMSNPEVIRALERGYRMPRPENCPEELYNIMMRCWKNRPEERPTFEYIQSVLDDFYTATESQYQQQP

[4] = molecular target: T2, Tyrosine-protein kinase Lyn (Homo sapiens, UniProt P07948); test: Inhibition of human full length recombinant LYN at 5 nM by radiometric scintillation counting analysis relative to control
[5] = molecular target: Platelet-derived growth factor receptor alpha (Homo sapiens) (UniProt P16234); test: Inhibition of human recombinant PDGFRalpha (550 to end) at 5 nM by radiometric scintillation counting analysis relative to control
[6] = molecular target: Proto-oncogene tyrosine-protein kinase Src (Homo sapiens, UniProt P12931); test: Inhibition of human recombinant Src (1-530) at 5 nM by radiometric scintillation counting analysis relative to control
[7] = molecular target: Tyrosine-protein kinase ABL1 (Homo sapiens, UniProt P00519); test: Inhibition of human recombinant ABL1 using ATP/Ulight-TK peptide at 50 nM incubated for 15 mins relative to control
Tyrosine-protein kinase ABL1, sequence (P00519 whole entry): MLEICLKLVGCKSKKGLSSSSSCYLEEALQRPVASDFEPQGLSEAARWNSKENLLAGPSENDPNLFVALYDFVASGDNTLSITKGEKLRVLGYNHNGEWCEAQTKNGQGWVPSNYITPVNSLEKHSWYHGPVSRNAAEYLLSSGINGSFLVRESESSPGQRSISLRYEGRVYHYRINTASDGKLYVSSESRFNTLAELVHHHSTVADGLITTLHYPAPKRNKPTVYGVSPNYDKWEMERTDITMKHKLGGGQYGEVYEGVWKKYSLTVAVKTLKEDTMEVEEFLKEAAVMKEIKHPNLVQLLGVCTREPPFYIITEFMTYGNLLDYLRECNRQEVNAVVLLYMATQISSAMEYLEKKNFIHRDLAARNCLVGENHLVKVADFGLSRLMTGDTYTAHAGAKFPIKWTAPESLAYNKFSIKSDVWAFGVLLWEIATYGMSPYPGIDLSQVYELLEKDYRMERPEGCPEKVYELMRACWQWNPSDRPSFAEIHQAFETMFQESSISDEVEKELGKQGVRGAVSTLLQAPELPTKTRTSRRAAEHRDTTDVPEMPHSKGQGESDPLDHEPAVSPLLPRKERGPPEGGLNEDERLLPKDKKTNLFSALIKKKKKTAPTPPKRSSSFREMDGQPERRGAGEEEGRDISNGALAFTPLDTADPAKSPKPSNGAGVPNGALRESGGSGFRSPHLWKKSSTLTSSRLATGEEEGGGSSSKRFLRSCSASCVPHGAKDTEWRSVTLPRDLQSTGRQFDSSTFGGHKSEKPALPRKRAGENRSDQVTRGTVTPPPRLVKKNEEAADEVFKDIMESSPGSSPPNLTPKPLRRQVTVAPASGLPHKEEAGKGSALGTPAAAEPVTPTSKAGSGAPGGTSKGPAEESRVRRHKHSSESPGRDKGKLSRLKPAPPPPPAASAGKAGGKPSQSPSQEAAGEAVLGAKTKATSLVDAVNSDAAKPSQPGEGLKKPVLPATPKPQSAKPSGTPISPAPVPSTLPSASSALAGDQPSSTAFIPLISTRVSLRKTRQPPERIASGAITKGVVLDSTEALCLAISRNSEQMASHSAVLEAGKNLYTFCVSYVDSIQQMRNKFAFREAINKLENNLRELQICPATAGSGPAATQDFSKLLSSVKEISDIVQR

[8] = molecular target: Tyrosine-protein kinase Blk (Homo sapiens, UniProt P51451); test: Inhibition of human full length recombinant BLK at 50 nM by radiometric scintillation counting analysis relative to control
[9] = molecular target: Mast/stem cell growth factor receptor Kit (Homo sapiens) (UniProt P10721); test: Inhibition of human recombinant c-Kit at 50 nM by radiometric scintillation counting analysis relative to control
[10] = molecular target: T3, Tyrosine-protein kinase Fgr (Homo sapiens, UniProt P09769); test: Inhibition of human recombinant FGR (456 to 770) at 50 nM by radiometric scintillation counting analysis relative to control
T3 sequence (P09769 2-529 limits assumed): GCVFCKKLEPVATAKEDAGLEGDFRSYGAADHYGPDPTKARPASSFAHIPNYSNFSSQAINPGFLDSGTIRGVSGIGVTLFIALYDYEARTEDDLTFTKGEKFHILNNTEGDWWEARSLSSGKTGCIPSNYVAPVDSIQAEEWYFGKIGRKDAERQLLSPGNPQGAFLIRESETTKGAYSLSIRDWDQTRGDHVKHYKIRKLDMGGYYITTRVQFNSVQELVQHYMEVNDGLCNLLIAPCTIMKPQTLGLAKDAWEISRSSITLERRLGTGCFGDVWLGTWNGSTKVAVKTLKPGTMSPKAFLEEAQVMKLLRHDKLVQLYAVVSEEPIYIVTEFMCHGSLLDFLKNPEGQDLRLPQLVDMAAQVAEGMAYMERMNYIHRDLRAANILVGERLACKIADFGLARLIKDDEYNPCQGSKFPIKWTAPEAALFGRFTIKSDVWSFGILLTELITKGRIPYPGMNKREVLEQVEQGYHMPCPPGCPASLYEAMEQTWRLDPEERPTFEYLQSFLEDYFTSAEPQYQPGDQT

[11] = molecular target: Macrophage colony-stimulating factor 1 receptor (Homo sapiens, UniProt P07333); test: Inhibition of human recombinant CSF1R using ATP/Ulight-TK peptide at 50 nM incubated for 15 mins relative to control
[12] = molecular target: T2, Tyrosine-protein kinase Lyn; test: Inhibition of human full length recombinant LYN at 50 nM by radiometric scintillation counting analysis relative to control
[13] = molecular target: T4, Tyrosine-protein kinase TXK (Homo sapiens) (UniProt P42681); test: Inhibition of human recombinant […] (256 to end) at 50 nM by radiometric scintillation counting analysis relative to control
T4 sequence (whole entry): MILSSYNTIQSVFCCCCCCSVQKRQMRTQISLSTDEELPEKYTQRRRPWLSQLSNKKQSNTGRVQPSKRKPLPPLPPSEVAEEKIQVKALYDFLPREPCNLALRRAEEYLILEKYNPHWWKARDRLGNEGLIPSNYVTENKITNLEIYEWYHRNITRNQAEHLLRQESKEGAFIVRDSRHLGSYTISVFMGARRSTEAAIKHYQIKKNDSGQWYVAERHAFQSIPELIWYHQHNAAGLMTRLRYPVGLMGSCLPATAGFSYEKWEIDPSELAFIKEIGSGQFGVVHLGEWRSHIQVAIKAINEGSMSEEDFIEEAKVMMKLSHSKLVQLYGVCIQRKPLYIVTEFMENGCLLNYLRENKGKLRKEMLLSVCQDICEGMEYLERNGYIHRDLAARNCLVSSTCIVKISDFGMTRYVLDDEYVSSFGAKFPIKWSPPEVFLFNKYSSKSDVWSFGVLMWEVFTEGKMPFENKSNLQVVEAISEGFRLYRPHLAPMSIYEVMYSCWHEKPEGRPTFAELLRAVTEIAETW

[14] = molecular target: Tyrosine-protein kinase Yes (Homo sapiens, UniProt P07947); test: Inhibition of human full length recombinant Yes at 50 nM by radiometric scintillation counting analysis relative to control
Tyrosine-protein kinase Yes, sequence (P07947 2-543 limits assumed): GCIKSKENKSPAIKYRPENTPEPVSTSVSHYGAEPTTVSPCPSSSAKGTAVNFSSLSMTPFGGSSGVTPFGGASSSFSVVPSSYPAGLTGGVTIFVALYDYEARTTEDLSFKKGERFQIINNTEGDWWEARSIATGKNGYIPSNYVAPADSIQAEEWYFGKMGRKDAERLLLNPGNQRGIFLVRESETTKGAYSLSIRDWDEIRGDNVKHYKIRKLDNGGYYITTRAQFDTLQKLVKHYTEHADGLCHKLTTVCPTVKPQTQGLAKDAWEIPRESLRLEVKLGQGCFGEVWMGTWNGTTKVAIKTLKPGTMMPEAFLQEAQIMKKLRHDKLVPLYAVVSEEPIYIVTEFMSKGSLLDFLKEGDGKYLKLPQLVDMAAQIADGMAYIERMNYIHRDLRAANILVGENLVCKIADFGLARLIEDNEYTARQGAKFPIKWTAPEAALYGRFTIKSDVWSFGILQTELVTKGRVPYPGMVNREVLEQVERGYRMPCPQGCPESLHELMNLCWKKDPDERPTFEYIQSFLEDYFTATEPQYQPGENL

[15] = molecular target: Tyrosine-protein kinase BTK (Homo sapiens) (UniProt Q06187); test: Inhibition of human full length recombinant BTK at 500 nM by radiometric scintillation counting analysis relative to control
[16] = molecular target: Mast/stem cell growth factor receptor Kit (Homo sapiens) (UniProt P10721); test: Inhibition of human recombinant c-Kit at 500 nM by radiometric scintillation counting analysis relative to control
[17] = molecular target: T3, Tyrosine-protein kinase Fgr; test: Inhibition of human recombinant FGR (456 to 770) at 500 nM by radiometric scintillation counting analysis relative to control
[18] = molecular target: T1, Tyrosine-protein kinase Fyn; test: Inhibition of human recombinant Fyn (218 to end) at 500 nM incubated for 15 mins relative to control
[19] = molecular target: T5, Tyrosine-protein kinase ITK/TSK (Homo sapiens) (UniProt Q08881); test: Inhibition of human recombinant ITK (352 to 617) at 500 nM by radiometric scintillation counting analysis relative to control
T5 sequence (whole entry): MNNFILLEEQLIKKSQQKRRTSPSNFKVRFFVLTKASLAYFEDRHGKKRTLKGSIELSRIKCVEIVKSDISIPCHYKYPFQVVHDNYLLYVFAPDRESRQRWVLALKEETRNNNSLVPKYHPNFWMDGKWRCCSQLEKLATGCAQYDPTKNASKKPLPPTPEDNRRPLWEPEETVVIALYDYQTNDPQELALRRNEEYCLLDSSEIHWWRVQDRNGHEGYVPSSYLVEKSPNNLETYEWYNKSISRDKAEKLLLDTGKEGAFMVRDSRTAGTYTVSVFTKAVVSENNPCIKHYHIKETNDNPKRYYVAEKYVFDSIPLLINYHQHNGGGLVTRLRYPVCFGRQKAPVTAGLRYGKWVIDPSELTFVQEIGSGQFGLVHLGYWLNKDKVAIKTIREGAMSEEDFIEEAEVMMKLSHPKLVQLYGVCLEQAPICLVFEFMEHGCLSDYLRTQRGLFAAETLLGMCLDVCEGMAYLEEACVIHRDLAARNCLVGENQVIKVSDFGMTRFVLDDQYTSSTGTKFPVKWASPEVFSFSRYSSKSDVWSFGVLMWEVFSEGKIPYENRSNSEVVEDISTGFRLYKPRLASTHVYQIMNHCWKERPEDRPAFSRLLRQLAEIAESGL

[20] = molecular target: Tyrosine-protein kinase SYK (Homo sapiens) (UniProt P43405); test: Inhibition of human full length recombinant Syk at 500 nM by radiometric scintillation counting analysis relative to control
[21] = molecular target: T4, Tyrosine-protein kinase TXK (Homo sapiens); test: Inhibition of human recombinant Txk (256 to end) at 500 nM by radiometric scintillation counting analysis relative to control
[22] = molecular target: Tyrosine-protein kinase JAK1 (Homo sapiens) (UniProt P23458); test: Inhibition of human recombinant JAK1 at 50 nM radiometric scintillation counting analysis relative to control
Tyrosine-protein kinase JAK1 (Homo sapiens), sequence (P23458 whole entry): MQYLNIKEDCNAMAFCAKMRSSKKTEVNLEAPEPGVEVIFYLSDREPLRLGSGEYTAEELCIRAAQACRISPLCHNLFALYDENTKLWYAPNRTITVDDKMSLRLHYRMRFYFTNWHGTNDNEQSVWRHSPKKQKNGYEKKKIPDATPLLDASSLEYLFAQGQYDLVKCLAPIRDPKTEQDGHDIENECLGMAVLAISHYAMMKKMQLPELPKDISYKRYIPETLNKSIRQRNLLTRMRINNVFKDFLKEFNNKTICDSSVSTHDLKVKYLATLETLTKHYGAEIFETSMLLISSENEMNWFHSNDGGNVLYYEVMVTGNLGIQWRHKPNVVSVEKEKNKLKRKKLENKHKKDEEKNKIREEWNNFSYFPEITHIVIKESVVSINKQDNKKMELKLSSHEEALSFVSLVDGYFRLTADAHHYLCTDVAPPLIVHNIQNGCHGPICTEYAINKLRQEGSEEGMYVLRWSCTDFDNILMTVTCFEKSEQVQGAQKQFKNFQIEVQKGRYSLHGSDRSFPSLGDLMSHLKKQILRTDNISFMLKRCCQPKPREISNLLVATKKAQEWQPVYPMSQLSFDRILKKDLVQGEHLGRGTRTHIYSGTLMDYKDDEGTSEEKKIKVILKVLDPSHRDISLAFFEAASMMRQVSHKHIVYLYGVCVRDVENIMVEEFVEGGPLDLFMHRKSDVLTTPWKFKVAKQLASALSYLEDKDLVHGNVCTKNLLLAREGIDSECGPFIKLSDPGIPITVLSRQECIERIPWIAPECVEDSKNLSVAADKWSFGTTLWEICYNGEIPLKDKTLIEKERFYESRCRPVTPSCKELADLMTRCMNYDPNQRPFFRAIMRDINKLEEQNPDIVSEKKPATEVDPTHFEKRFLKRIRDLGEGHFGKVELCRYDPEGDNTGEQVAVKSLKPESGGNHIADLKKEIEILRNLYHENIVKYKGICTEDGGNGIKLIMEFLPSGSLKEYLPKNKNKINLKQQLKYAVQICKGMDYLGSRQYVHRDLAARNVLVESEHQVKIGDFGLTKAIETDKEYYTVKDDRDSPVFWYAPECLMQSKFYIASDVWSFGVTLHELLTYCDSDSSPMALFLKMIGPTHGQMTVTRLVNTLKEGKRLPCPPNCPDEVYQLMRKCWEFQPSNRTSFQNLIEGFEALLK

[23] = molecular target: RAC-alpha serine/threonine-protein kinase (Homo sapiens) (UniProt P31749); test: Inhibition of human recombinant PKBalpha at 50 nM radiometric scintillation counting analysis relative to control

SMILES	IC50 (RBL-2H3) [nM]	inhibition [1] [%]	inhibition [2] [%]	inhibition [3] [%]	inhibition [4] [%]	inhibition [5] [%]	inhibition [6] [%]	inhibition [7] [%]	inhibition [8] [%]	inhibition [9] [%]	inhibition [10] [%]	inhibition [11] [%]	inhibition [12] [%]	inhibition [13] [%]	inhibition [14] [%]	inhibition [15] [%]	inhibition [16] [%]	inhibition [17] [%]	inhibition [18] [%]	inhibition [19] [%]	also measured
Cc1ccc(C(=O)Nc2ccc(Cl)cc2Cl)cc1C#Cc1cc(-c2cnn(C)c2)cnc1N	> 1000	8	2	1	19	-6	4	64	13	21	20	94	93	5	18	11	56	46	64	19	inhibition [20]: 8%; inhibition [21]: -1%; inhibition [22]: -6%; inhibition [23]: 7%
Cc1ccc(C(=O)Nc2cc(C(F)(F)F)cc(C(F)(F)F)c2)cc1C#Cc1cc(-c2cnn(C)c2)cnc1N	9.32	16	29	11	41	1	-10	88	56	-10	71	83	105	60	14	49	17	101	97	2	inhibition [20]: 2%; inhibition [21]: 86%; inhibition [22]: 37%; inhibition [23]: 2%
Cc1ccc(C(=O)Nc2ccc(OC(F)(F)F)cc2)cc1C#Cc1cc(-c2cnn(C)c2)cnc1N	3.71	-4	21	68	96	7	71	96	69	15	34	69	99	18	39	-2	65	77	96	-4	inhibition [20]: 9%; inhibition [21]: 42%; inhibition [22]: 8%; inhibition [23]: 2%

Reference: ChEMBL document CHEMBL4837249, “Discovery of Potent Antiallergic Agents Based on an o-Aminopyridinyl Alkynyl Scaffold” (J Med Chem, 2021)
